Experimental data from US20260042731A1, “(2,4-DICHLOROPHENOXY)ACETIC ACID ANALOGS” (CORTEVA AGRISCIENCE LLC, priority 2022, published 2026).
Read-outs that look alike come from different tables or passages of the source.

What was measured:
[1] = tested on: Amaranthus rudis (AMATA), tall water hemp; assay: Postemergence herbicide evaluation, growth of Amaranthus rudis (AMATA); type: in vivo; settings: Amaranthus tuberculatus, post-emergence, read-out: Ave. AMATA
[2] = tested on: Ambrosia artemisiifolia (AMBEL), common ragweed; assay: Postemergence herbicide evaluation, growth of Ambrosia artemisiifolia (AMBEL); type: in vivo; settings: Ambrosia artemisiifolia, post-emergence, read-out: AVE. AMBEL
[3] = tested on: Abutilon theophrasti (ABUTH), velvetleaf; assay: Postemergence herbicide evaluation, growth of Abutilon theophrasti (ABUTH); type: in vivo; settings: Abutilon theophrasti, post-emergence, read-out: AVE. ABUTH
[4] = tested on: Chenopodium album (CHEAL), common lambsquarters; assay: Postemergence herbicide evaluation, growth of Chenopodium album (CHEAL); type: in vivo; settings: Chenopodium album, post-emergence, read-out: Ave. CHEAL
[5] = tested on: glyphosate resistant Conyza canadensis (L.) (ERICA), horseweed; assay: Postemergence herbicide evaluation, growth of Conyza canadensis (ERICA); type: in vivo; settings: Erigeron canadensis, post-emergence, read-out: Ave. ERICA
[6] = Volatility of compounds measured by thermogravimetric analysis (TGA); type: physicochemical
[7] = tested on: weeds (ABUTH, AMATA, AMBEL, CHEAL, ERICA); assay: Postemergence herbicide evaluation, overall average % weed control across ABUTH, AMATA, AMBEL, CHEAL, ERICA; type: in vivo; settings: post-emergence, read-out: Overall Ave % Weed Control

Compound	pest or weed control at 280 g/ha ([1]; 168 h)	pest or weed control at 560 g/ha ([1]; 168 h)	pest or weed control at 280 g/ha ([1]; 336 h)	pest or weed control at 560 g/ha ([1]; 336 h)	pest or weed control at 280 g/ha ([1]; 504 h)	pest or weed control at 560 g/ha ([1]; 504 h)	pest or weed control at 280 g/ha ([2]; 168 h)	pest or weed control at 560 g/ha ([2]; 168 h)	pest or weed control at 280 g/ha ([2]; 336 h)	pest or weed control at 560 g/ha ([2]; 336 h)	pest or weed control at 280 g/ha ([2]; 504 h)	pest or weed control at 560 g/ha ([2]; 504 h)	pest or weed control at 280 g/ha ([3]; 168 h)	pest or weed control at 560 g/ha ([3]; 168 h)	pest or weed control at 280 g/ha ([3]; 336 h)	pest or weed control at 560 g/ha ([3]; 336 h)	pest or weed control at 280 g/ha ([3]; 504 h)	pest or weed control at 560 g/ha ([3]; 504 h)	pest or weed control at 280 g/ha ([4]; 168 h)	pest or weed control at 560 g/ha ([4]; 168 h)	further results
O=C(COc1ccc(Cl)cc1Cl)OCc1ccccc1 [Compound E4, Benzyl 2-(2,4-dichlorophenoxy)acetate]	68%	78%	65%	93%	70%	91%	68%	73%	89%	97%	99%	99%	90%	90%	97%	97%	99%	98%	73%	70%	pest or weed control at 280 g/ha ([4]; 336 h): 83%; pest or weed control at 560 g/ha ([4]; 336 h): 73%; pest or weed control at 280 g/ha ([4]; 504 h): 88%; pest or weed control at 560 g/ha ([4]; 504 h): 75%; pest or weed control at 280 g/ha ([5]; 168 h): 70%; pest or weed control at 560 g/ha ([5]; 168 h): 75%; pest or weed control at 280 g/ha ([5]; 336 h): 88%; pest or weed control at 560 g/ha ([5]; 336 h): 93%; pest or weed control at 280 g/ha ([5]; 504 h): 95%; pest or weed control at 560 g/ha ([5]; 504 h): 99%; TGA Data (rate of weight loss, volatility) [6]: 0.4 µg/min; pest or weed control at 280 g/ha ([7]; 168 h): 74%; pest or weed control at 560 g/ha ([7]; 168 h): 77%; pest or weed control at 280 g/ha ([7]; 336 h): 84%; pest or weed control at 560 g/ha ([7]; 336 h): 90%; pest or weed control at 280 g/ha ([7]; 504 h): 90%; pest or weed control at 560 g/ha ([7]; 504 h): 92%
O=C(COc1ccc(Cl)cc1Cl)Oc1ccc(Cl)cc1 [Compound E5, 4-Chlorophenyl 2-(2,4-dichlorophenoxy)acetate]	73%	78%	75%	89%	78%	86%	68%	75%	89%	93%	90%	98%	78%	85%	93%	93%	98%	97%	70%	68%	pest or weed control at 280 g/ha ([4]; 336 h): 73%; pest or weed control at 560 g/ha ([4]; 336 h): 83%; pest or weed control at 280 g/ha ([4]; 504 h): 80%; pest or weed control at 560 g/ha ([4]; 504 h): 94%; pest or weed control at 280 g/ha ([5]; 168 h): 68%; pest or weed control at 560 g/ha ([5]; 168 h): 70%; pest or weed control at 280 g/ha ([5]; 336 h): 90%; pest or weed control at 560 g/ha ([5]; 336 h): 83%; pest or weed control at 280 g/ha ([5]; 504 h): 95%; pest or weed control at 560 g/ha ([5]; 504 h): 90%; TGA Data (rate of weight loss, volatility) [6]: 0.6 µg/min; pest or weed control at 280 g/ha ([7]; 168 h, 280 g ae/ha, 7 DAA, average over the five weeds): 71%; pest or weed control at 560 g/ha ([7]; 168 h, 560 g ae/ha, 7 DAA, average over the five weeds): 75%; pest or weed control at 280 g/ha ([7]; 336 h, 280 g ae/ha, 14 DAA, average over the five weeds): 84%; pest or weed control at 560 g/ha ([7]; 336 h, 560 g ae/ha, 14 DAA, average over the five weeds): 88%; pest or weed control at 280 g/ha ([7]; 504 h, 280 g ae/ha, 21 DAA, average over the five weeds): 88%; pest or weed control at 560 g/ha ([7]; 504 h, 560 g ae/ha, 21 DAA, average over the five weeds): 93%
